Values quoted from earlier work, collected in patent publication US20230000903A1, “METHODS AND SYSTEMS FOR NITRIC OXIDE THERAPY FOR THE TREATMENT OR PREVENTION OF RESPIRATORY INFECTIONS” (KNOW Bio, LLC, priority 2020, published 2023).

[N]=O [NO, nitric oxide]
radius of action from its site of origin (beyond which it is inactivated by binding to thiols or heme of hemoglobin): approximately 200 microns | half-life in the body (in the body): less than 6 seconds | share of the nitric oxide dose inhaled excreted in the urine as nitrate (urine, nitrate as predominant metabolite, inhaled dose): more than 70%
